Experimental data from ChEMBL document CHEMBL1649450, “In vitro activity of micafungin against planktonic and sessile Candida albicans isolates” (2009).
≈ marks a conversion by molar mass, not a printed value. *1 amine or outer side, *2 acyl side, *3 side chain or, on linkers, in order; H or OH if unused. Where a SMILES comes first, the peptide text is derived from it. Bridges are numbered along the chain shown (N, C = ends). [ ]: non-standard residue; d: D form. The star is where a group is joined. hTyr(3S-OH,4S-OH,3'-OSO3H) = N[C@H](C(=O)O)[C@H](O)[C@@H](O)c1ccc(O)c(OS(=O)(=O)O)c1; pTerphenylCO(4''-OnC5H11) = CCCCCOc1ccc(-c2ccc(-c3ccc(C(=O)*)cc3)cc2)cc1; Orn(4R-OH,5R-OH) = O=C([C@H](C[C@@H](O)[C@@H](O)N[*:3])N[*:1])[*:2]; hTyr(3S-OH,4S-OH) = N[C@H](C(=O)O)[C@H](O)[C@@H](O)c1ccc(O)cc1; Pro(3S-OH,4S-Me) = C[C@H]1CN[C@H](C(=O)O)[C@H]1O; X1 = CCCCCOc1ccc(-c2cc(-c3ccc(C(=O)*)cc3)no2)cc1; Gln(3R-OH) = NC(=O)C[C@@H](O)[C@H](N)C(=O)O; Hyp = O=C(O)[C@@H]1C[C@@H](O)CN1

Columns and labels:
Assay type in all cases: functional
Candida albicans [1] = experiment: Antimicrobial activity against Candida albicans clinical isolate biofilm by broth microdilution method
Candida albicans [2] = experiment: Antimicrobial activity against Candida albicans clinical isolates planktonic cells by broth microdilution method
Candida albicans [3] = experiment: Antimicrobial activity against Candida albicans GDH 2346 sessile cells by microtiter plated based assay
Candida albicans [4] = experiment: Antimicrobial activity against Candida albicans clinical isolate sessile cells by microtiter plated based assay
Candida albicans [5] = experiment: Antimicrobial activity against Candida albicans GDH 2346 planktonic cells by broth microdilution method

SMILES | MIC90 (Candida albicans [1]) [µg/mL] | MIC50 (Candida albicans [2]) [µg/mL] | MIC90 (Candida albicans [2]) [µg/mL] | MIC (Candida albicans [3]) [µg/mL] | MIC50 (Candida albicans [4]) [µg/mL] | MIC90 (Candida albicans [4]) [µg/mL] | MIC (Candida albicans [5]) [µg/mL]
CC[C@H](C)C[C@H](C)CCCCCCCCC(=O)N[C@H]1C[C@@H](O)[C@@H](NCCN)NC(=O)[C@@H]2[C@@H](O)CCN2C(=O)[C@H]([C@H](O)CCN)NC(=O)[C@H]([C@H](O)[C@@H](O)c2ccc(O)cc2)NC(=O)[C@@H]2C[C@@H](O)CN2C(=O)[C@H]([C@@H](C)O)NC1=O [CASPOFUNGIN] | 2 (≈ 1.83 µM) |  |  |  |  |  | 
CCCCCOc1ccc(-c2ccc(-c3ccc(C(=O)N[C@H]4C[C@@H](O)[C@@H](O)NC(=O)[C@@H]5[C@@H](O)[C@@H](C)CN5C(=O)[C@H]([C@@H](C)O)NC(=O)[C@H]([C@H](O)[C@@H](O)c5ccc(O)cc5)NC(=O)[C@@H]5C[C@@H](O)CN5C(=O)[C@H]([C@@H](C)O)NC4=O)cc3)cc2)cc1 [ANIDULAFUNGIN] ({pTerphenylCO(4''-OnC5H11)}-[Orn(4R-OH,5R-OH)]T[Hyp][hTyr(3S-OH,4S-OH)]T[Pro(3S-OH,4S-Me)]; lactam 1-C) | ≤ 0.03 |  |  |  |  |  | 
CCCCCOc1ccc(-c2cc(-c3ccc(C(=O)N[C@H]4C[C@@H](O)[C@@H](O)NC(=O)[C@@H]5[C@@H](O)[C@@H](C)CN5C(=O)[C@H]([C@H](O)CC(N)=O)NC(=O)[C@H]([C@H](O)[C@@H](O)c5ccc(O)c(OS(=O)(=O)O)c5)NC(=O)[C@@H]5C[C@@H](O)CN5C(=O)[C@H]([C@@H](C)O)NC4=O)cc3)no2)cc1 [MICAFUNGIN] (X1-[Orn(4R-OH,5R-OH)]T[Hyp][hTyr(3S-OH,4S-OH,3'-OSO3H)][Gln(3R-OH)][Pro(3S-OH,4S-Me)]; lactam 1-C) |  | 0.125 (≈ 0.0984 µM) | 0.125 (≈ 0.0984 µM) | 0.53 (≈ 0.417 µM) | 0.5 (≈ 0.394 µM) | 0.5 (≈ 0.394 µM) | 0.06 (≈ 0.0472 µM)
